{"source": "ChEMBL document CHEMBL5370537", "about": "“Aporphines: A privileged scaffold in CNS drug discovery” (Eur J Med Chem, 2023)", "key": {"BV-2 [1]": {"system": "BV-2", "experiment": "Inhibition of NO production in LPS-induced mouse BV-2 cells incubated for 24 hrs by Griess reagent based microplate reader analysis", "type": "functional, cell-based", "details": "BV-2, 24 h"}, "[2]": {"biological_target": "5-hydroxytryptamine receptor 7 (Rattus norvegicus, UniProt P32305)", "sequence (P32305 whole entry)": "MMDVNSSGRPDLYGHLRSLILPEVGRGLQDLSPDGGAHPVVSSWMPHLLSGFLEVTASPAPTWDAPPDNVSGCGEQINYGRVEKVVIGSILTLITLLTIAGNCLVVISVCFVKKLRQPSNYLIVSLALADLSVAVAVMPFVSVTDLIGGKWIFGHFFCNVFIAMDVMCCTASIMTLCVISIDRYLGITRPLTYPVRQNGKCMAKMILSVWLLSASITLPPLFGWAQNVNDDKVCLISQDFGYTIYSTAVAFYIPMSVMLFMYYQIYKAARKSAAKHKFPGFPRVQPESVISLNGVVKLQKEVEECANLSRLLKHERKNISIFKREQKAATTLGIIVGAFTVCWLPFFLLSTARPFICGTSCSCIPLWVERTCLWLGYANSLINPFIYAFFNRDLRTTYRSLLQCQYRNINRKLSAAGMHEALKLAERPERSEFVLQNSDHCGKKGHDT", "experiment": "Displacement of [3H]5-HT from rat 5-HT7 assessed as inhibition constant"}, "SH-SY5Y": {"system": "SH-SY5Y", "experiment": "Neuroprotective activity against human SH-SY5Y cells assessed as increase in BDNF level measured after 48 hrs", "type": "functional, cell-based"}, "BV-2 [3]": {"system": "BV-2", "experiment": "Potency index, ratio of minocycline IC50 to test compound IC50 for inhibition of NO production in LPS-induced mouse BV-2 cells incubated for 24 hrs by Griess reagent based microplate reader analysis", "type": "functional"}, "Acetylcholinesterase": {"biological_target": "Acetylcholinesterase (Electrophorus electricus, UniProt O42275)", "sequence (O42275 whole entry)": "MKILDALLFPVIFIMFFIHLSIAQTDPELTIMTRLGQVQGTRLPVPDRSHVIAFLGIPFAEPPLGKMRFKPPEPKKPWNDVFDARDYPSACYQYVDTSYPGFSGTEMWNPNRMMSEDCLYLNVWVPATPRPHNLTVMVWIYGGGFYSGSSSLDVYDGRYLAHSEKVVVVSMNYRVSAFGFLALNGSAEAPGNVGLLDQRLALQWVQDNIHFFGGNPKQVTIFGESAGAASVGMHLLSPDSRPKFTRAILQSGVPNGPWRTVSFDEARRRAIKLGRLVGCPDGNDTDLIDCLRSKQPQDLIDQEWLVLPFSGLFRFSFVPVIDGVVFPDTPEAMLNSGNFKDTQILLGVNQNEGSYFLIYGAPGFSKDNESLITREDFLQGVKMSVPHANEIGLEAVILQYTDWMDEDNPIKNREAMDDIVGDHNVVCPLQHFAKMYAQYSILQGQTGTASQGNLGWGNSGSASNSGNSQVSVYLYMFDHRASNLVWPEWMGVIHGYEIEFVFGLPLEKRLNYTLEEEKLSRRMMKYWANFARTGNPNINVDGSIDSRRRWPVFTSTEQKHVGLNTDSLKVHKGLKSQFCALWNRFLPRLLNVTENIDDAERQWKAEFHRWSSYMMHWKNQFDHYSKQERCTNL", "experiment": "Inhibition of Electrophorus electricus AChE using ATCI as substrate pre-incubated for 10 mins followed by substrate addition measured after 5 mins by microplate reader analysis"}, "Cholinesterase": {"biological_target": "Cholinesterase (Equus caballus, UniProt P81908)", "sequence (P81908 whole entry)": "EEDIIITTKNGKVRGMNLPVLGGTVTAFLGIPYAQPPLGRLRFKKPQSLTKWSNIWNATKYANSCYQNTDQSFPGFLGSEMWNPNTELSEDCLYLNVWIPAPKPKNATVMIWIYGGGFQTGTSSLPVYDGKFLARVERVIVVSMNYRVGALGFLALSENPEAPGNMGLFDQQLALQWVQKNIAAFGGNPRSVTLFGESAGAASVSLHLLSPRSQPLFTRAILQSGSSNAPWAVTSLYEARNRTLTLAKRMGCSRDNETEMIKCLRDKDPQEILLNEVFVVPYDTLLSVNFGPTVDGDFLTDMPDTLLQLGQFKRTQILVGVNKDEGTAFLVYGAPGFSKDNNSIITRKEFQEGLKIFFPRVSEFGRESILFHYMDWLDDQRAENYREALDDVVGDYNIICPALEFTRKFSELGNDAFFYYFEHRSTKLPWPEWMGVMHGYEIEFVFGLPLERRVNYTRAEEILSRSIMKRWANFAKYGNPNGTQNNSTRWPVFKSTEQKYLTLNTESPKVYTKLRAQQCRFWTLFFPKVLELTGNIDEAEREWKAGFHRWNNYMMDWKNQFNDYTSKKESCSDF", "experiment": "Inhibition of equine serum BuChE using BTCI as substrate pre-incubated for 10 mins followed by substrate addition measured after 5 mins by microplate reader analysis"}, "[4]": {"biological_target": "T1, 5-hydroxytryptamine receptor 2C (Homo sapiens, UniProt P28335)", "T1 sequence (P28335 whole entry)": "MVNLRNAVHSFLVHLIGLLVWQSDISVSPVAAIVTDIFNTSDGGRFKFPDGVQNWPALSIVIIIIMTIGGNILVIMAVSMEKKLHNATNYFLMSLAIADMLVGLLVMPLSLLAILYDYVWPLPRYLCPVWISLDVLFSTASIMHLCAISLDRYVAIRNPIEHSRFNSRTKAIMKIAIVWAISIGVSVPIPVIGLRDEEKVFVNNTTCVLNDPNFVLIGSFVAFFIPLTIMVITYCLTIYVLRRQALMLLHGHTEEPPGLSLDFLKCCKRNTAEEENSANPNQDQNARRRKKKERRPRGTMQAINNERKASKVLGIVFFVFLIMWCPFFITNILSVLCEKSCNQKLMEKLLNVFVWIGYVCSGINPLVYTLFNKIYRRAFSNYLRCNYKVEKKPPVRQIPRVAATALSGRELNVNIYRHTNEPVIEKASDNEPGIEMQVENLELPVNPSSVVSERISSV", "experiment": "Agonist activity at 5-HT2C (unknown origin)", "type": "functional"}, "[5]": {"biological_target": "T2, 5-hydroxytryptamine receptor 2C (Homo sapiens) (UniProt P28335)", "T2 sequence (whole entry)": "T1 sequence (P28335 whole entry)", "experiment": "Agonist activity at 5-HT2C (unknown origin) relative to control", "type": "functional", "details": "filed as agonist"}, "D(1A) dopamine receptor": {"biological_target": "D(1A) dopamine receptor (Homo sapiens, UniProt P21728)", "sequence (P21728 whole entry)": "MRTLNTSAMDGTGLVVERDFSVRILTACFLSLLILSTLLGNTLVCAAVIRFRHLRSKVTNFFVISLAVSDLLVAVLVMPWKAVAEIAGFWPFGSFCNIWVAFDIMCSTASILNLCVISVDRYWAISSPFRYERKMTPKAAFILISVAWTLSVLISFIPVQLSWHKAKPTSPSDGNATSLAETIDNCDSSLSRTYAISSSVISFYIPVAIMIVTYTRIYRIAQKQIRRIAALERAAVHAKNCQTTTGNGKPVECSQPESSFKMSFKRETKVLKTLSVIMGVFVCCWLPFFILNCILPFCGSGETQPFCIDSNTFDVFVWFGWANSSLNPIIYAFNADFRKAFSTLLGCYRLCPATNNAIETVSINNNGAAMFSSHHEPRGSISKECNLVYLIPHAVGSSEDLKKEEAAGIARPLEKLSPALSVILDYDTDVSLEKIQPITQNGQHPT", "experiment": "Antagonist activity at D1R (unknown origin) transfected in HEK293 cells by FLIPR assay"}, "D(2) dopamine receptor [6]": {"biological_target": "T3, D(2) dopamine receptor (Homo sapiens, UniProt P14416)", "T3 sequence (P14416 whole entry)": "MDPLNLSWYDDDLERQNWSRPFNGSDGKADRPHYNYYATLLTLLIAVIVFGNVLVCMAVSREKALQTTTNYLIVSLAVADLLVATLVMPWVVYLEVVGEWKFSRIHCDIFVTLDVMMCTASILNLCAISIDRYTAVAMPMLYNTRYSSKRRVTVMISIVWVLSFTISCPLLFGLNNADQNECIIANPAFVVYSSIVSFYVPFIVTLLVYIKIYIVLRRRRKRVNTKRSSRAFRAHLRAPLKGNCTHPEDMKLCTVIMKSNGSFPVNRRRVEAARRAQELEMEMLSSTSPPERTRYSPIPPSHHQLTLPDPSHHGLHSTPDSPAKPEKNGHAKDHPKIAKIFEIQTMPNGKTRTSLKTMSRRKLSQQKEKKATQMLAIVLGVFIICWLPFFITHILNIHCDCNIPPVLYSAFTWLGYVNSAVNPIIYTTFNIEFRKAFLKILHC", "experiment": "Antagonist activity at D2R (unknown origin)", "type": "functional"}, "[7]": {"biological_target": "T4, 5-hydroxytryptamine receptor 2B (Homo sapiens, UniProt P41595)", "T4 sequence (P41595 whole entry)": "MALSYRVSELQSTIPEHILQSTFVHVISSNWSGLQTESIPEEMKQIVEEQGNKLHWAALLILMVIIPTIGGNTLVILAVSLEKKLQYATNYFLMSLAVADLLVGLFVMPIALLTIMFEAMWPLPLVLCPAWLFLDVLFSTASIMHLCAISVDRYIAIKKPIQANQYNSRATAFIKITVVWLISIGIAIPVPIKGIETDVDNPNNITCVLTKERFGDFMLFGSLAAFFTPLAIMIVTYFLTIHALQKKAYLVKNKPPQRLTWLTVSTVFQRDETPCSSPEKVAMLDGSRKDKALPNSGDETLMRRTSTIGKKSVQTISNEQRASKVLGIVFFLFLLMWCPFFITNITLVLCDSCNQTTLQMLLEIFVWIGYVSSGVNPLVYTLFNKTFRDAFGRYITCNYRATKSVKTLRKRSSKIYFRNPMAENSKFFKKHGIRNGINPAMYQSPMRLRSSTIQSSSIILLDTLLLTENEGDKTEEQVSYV", "experiment": "Agonist activity at 5-HT2B (unknown origin)", "type": "functional"}, "[8]": {"biological_target": "T4, 5-hydroxytryptamine receptor 2B", "experiment": "Agonist activity at 5-HT2B (unknown origin) relative to control", "type": "functional", "details": "filed as agonist"}, "[9]": {"biological_target": "T5, 5-hydroxytryptamine receptor 2A (Homo sapiens, UniProt P28223)", "T5 sequence (P28223 whole entry)": "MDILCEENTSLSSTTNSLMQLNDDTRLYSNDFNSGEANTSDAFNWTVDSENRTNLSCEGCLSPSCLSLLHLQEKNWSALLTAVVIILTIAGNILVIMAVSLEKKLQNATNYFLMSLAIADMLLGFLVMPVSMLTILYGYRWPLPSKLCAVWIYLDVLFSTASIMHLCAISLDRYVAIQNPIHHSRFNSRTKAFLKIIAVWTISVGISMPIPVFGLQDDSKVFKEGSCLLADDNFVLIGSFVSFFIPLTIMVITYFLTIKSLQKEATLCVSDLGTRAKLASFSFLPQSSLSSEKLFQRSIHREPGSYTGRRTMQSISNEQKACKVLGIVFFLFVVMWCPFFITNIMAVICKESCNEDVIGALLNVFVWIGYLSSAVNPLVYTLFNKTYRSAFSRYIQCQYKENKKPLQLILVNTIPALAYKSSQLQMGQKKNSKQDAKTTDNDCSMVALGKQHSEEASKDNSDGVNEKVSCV", "experiment": "Agonist activity at 5-HT2A (unknown origin)", "type": "functional"}, "[10]": {"experiment": "Selectivity index, ratio of EC50 for agonist activity at 5-HT2C (unknown origin) to EC50 for agonist activity at 5-HT2A (unknown origin)"}, "[11]": {"experiment": "Selectivity index, ratio of EC50 for agonist activity at 5-HT2C (unknown origin) to EC50 for agonist activity at 5-HT2B (unknown origin)"}, "[12]": {"biological_target": "T5, 5-hydroxytryptamine receptor 2A", "experiment": "Agonist activity at 5-HT2A (unknown origin) relative to control", "type": "functional", "details": "filed as agonist"}, "[13]": {"biological_target": "T1, 5-hydroxytryptamine receptor 2C", "experiment": "Antagonist activity at 5-HT2C (unknown origin)", "type": "functional"}, "[14]": {"biological_target": "5-hydroxytryptamine receptor 7 (Homo sapiens, UniProt P34969)", "sequence (P34969 whole entry)": "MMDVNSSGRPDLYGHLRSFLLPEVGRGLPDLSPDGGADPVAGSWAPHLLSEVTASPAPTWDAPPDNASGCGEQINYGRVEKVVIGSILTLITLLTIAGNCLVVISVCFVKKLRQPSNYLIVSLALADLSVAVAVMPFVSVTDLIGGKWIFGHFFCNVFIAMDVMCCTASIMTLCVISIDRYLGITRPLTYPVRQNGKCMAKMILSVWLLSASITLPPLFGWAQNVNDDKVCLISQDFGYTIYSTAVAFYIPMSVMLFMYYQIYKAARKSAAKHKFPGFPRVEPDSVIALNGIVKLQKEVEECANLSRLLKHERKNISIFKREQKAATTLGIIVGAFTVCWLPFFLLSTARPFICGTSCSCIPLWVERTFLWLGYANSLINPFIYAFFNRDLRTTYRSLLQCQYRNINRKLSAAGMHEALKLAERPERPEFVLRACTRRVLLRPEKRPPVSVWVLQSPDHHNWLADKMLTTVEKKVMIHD", "experiment": "Inverse agonist activity at 5-HT7 (unknown origin)", "type": "functional"}, "D(2) dopamine receptor [15]": {"biological_target": "T3, D(2) dopamine receptor", "experiment": "Partial agonist activity at D2R (unknown origin) expressed in HEK293 cells relative to control", "type": "functional, cell-based", "details": "filed as partial agonist"}, "[16]": {"biological_target": "T5, 5-hydroxytryptamine receptor 2A", "experiment": "Inverse agonist activity at 5-HT2A (unknown origin)", "type": "functional"}, "[17]": {"biological_target": "T1, 5-hydroxytryptamine receptor 2C", "experiment": "Partial agonist activity at human 5-HT2C stably transfected in HEK293T cells measured after 18 to 24 hrs by FLIPR assay", "type": "functional, cell-based"}}}
{"molecule": "COc1c(O)ccc2c1cc1c3c(cc4c(c32)OCO4)CCN1C", "values": [{"measurement": "IC50", "setting": "BV-2 [1]", "result": 39.2, "unit": "µM"}]}
{"molecule": "CN1CCc2ccc3c4c2[C@H]1Cc1cccc(c1-4)C3", "values": [{"measurement": "Ki", "setting": "[2]", "result": 0.0043, "unit": "µM"}]}
{"molecule": "COc1ccc2c(c1OC)C[C@@H]1c3c(cc4c(c3-2)OCO4)CCN1C", "values": [{"measurement": "IC50", "setting": "SH-SY5Y", "result": 5.26, "unit": "µM"}, {"measurement": "Ratio IC50", "setting": "BV-2 [3]", "result": 3}, {"measurement": "IC50", "setting": "Acetylcholinesterase", "result": 10.5, "unit": "µM"}, {"measurement": "IC50", "setting": "BV-2 [1]", "result": 5.26, "unit": "µM"}, {"measurement": "IC50", "setting": "Cholinesterase", "result": 17.4, "unit": "µM"}]}
{"molecule": "Oc1cc2c3c(c1Cl)-c1ccccc1C[C@@H]3NCC2", "values": [{"measurement": "EC50", "setting": "[4]", "result": 0.0079, "unit": "µM"}, {"measurement": "Emax", "setting": "[5]", "result": 89.8, "unit": "%"}]}
{"molecule": "COc1c(O)cc2c3c1-c1ccccc1CC3NCC2", "note": "(configuration not stated)", "values": [{"measurement": "IC50", "setting": "D(1A) dopamine receptor", "result": 7.2, "unit": "µM"}]}
{"molecule": "COc1ccc(OC)c2c1C[C@@H]1c3c(cc4c(c3-2)OCO4)CCN1C", "values": [{"measurement": "IC50", "setting": "D(2) dopamine receptor [6]", "result": 18.3, "unit": "µM"}]}
{"molecule": "CN(C)c1ccc(O)c2c1C[C@H]1C[C@H]3[C@H](N(C)C)C(O)=C(C(N)=O)C(=O)[C@@]3(O)C(O)=C1C2=O", "note": "[MINOCYCLINE]", "values": [{"measurement": "IC50", "setting": "BV-2 [1]", "result": 15.5, "unit": "µM"}]}
{"molecule": "Oc1cc2c3c(c1Cl)-c1ccccc1CC3NCC2", "note": "(configuration not stated)", "values": [{"measurement": "EC50", "setting": "[7]", "result": 0.278, "unit": "µM"}, {"measurement": "EC50", "setting": "[4]", "result": 0.0236, "unit": "µM"}, {"measurement": "Emax", "setting": "[8]", "result": 63.5, "unit": "%"}, {"measurement": "EC50", "setting": "[9]", "result": 0.596, "unit": "µM"}, {"measurement": "Ratio EC50", "setting": "[10]", "result": 25}, {"measurement": "Emax", "setting": "[5]", "result": 102, "unit": "%"}, {"measurement": "Ratio EC50", "setting": "[11]", "result": 12}, {"measurement": "Emax", "setting": "[12]", "result": 44.9, "unit": "%"}]}
{"molecule": "COc1cc2c3c(c1OC)-c1ccccc1CC3N(C)CC2", "note": "(stereo not drawn) [(+/-)-NUCIFERINE]", "values": [{"measurement": "IC50", "setting": "[13]", "result": 0.131, "unit": "µM"}, {"measurement": "EC50", "setting": "[14]", "result": 0.15, "unit": "µM"}, {"measurement": "Emax", "setting": "D(2) dopamine receptor [15]", "result": 67, "unit": "%"}, {"measurement": "IC50", "setting": "[16]", "result": 0.478, "unit": "µM"}]}
{"molecule": "COc1cccc2c1cc1c3c(cc4c(c32)OCO4)CCN1C", "values": [{"measurement": "IC50", "setting": "BV-2 [1]", "result": 30.2, "unit": "µM"}]}
{"molecule": "COc1c(O)cc2c3c1-c1ccccc1C[C@H]3NCC2", "note": "[(-)-ASIMILOBINE]", "values": [{"measurement": "EC50", "setting": "[17]", "result": 0.653, "unit": "µM"}, {"measurement": "IC50", "setting": "D(1A) dopamine receptor", "result": 7.2, "unit": "µM"}, {"measurement": "IC50", "setting": "Acetylcholinesterase", "result": 141, "unit": "µM"}, {"measurement": "IC50", "setting": "Cholinesterase", "result": 10.1, "unit": "µM"}]}
{"molecule": "COc1ccc2c(c1)cc1c3c(cc4c(c32)OCO4)CCN1C", "values": [{"measurement": "IC50", "setting": "BV-2 [1]", "result": 31.6, "unit": "µM"}]}
{"molecule": "COc1cccc2c1[C@@H](O)[C@@H]1c3c(cc4c(c3-2)OCO4)CCN1C", "values": [{"measurement": "IC50", "setting": "Acetylcholinesterase", "result": 6.12, "unit": "µM"}, {"measurement": "IC50", "setting": "Cholinesterase", "result": 5.87, "unit": "µM"}]}
